Results taken from PubChem BioAssay AID1963842 (Molecular Pharmacology Branch, DTP, NCI, 2024).
Where “and” joins values, the source holds several entries; their conditions need not be identical. Equal values may be shown once.

Tested on: 677734-321-R-J1-PDC complex spheroid viability
Test: Anticancer human tumor 677734-321-R-J1-PDC patient-derived soft tissue sarcoma cell line growth inhibition [POLQ]
Conditions: for viability, T/C: stronger effect = lower value
Method: Multicellular complex tumor spheroid response to Polymerase (POL) inhibitors (novobiocin, ART-558, RP6685) in combination with a variety of drugs and investigational agents in selected tumor cell lines
The POL inhibitors (novobiocin, ART-558, and RP6685) were evaluated both individually and in combination with standard of care and investigational anticancer small molecules within a complex spheroid model of solid tumors. . Complex spheroids include a stromal component modeled by human endothelial cells (HUVEC) and fibroblasts modeled by human mesenchymal stem cells (MSCs). The concentration ranges selected for each drug and investigational agent were based upon clinically achievable concentrations if the clinical Cmax of the agent was known.
Compounds. The drugs and investigational agents: novobiocin (NSC847541), ART-558 (NSC835418), RP-6685 (NSC848927), peposertib (NSC802822), ceralasertib (NSC780249), elimusertib (NSC800525), camonsertib (NSC841442), AZD-1390 (NSC803789), olaparib (NSC753686), talazoparib (NSC767125), rucaparib (NSC756644), sotorasib (NSC818433), MRTX-1133 (NSC836407), SN-38 (NSC673596), topotecan (NSC609699), epotoside (NSC141540), doxorubicin (NSC123127), gemcitabine (NSC613327), 5-fluorouracil (NSC19893), paclitaxel (NSC125973), vemurafenib (NSC761431), MSA-2 (NSC828583), SN-011 (NSC837082), adavosertib (NSC754352), prexasertib (NSC758257), carboplatin (NSC241240) and oxaliplatin (NSC266046), were obtained from the National Cancer Institute (NCI) Developmental Therapeutics Program Chemical Repository (21). The FDA-approved anticancer drug set is available from the Developmental Therapeutics Program at https://dtp.cancer.gov/organization/dscb/obtaining/. […] The stock solutions were prepared in dimethyl sulfoxide (DMSO, Sigma-Aldrich, St. Louis, MO, cat. D2650), except for the platinum compounds which were prepared in saline (Quality Biological, Gaithersburg, MD, cat. 114-055-101), at 800-fold the tested concentration and stored at -70 degrees C prior to their use. All drugs and investigational agents were tested over a range starting from a high concentration at or near the clinical Cmax and decreasing in half-log increments. If the clinical Cmax for an agent had not been determined, the highest concentration tested was 10 microM, except for SN-38, which was tested at a high concentration of 1 microM.
Cell Culture. All cells were maintained in an incubator at 37 degrees C and 5% CO2 with 95% humidity. The PDC lines were cultured according to standard operating procedures established by the NCI PDMR (https://pdmr.cancer.gov). Table 3 of the manuscript, lists the cell lines along with the number of the three cell types plated to form the mct-spheroids and media for tumor cell growth. After thawing, all PDC lines, except 997537-175-T-J1-PDC and 415267-285-R-J2-PDC, were cultured in Matrigel-coated flasks prepared with a working solution of 1X Ham's F-12 nutrient mix, without supplementation (Thermo Fisher Scientific, cat. 11765054), 100 U/mL penicillin-streptomycin (Thermo Fisher Scientific, cat. 15140122), and 2.5% Matrigel (Corning Inc., Corning, NY, cat. 354248) for the first three passages. The two PDC lines 997537-175-T-J1-PDC and 415267-285-R-J2-PDC were cultured on uncoated flasks. The 857933-349-R-J2-PDC line was cultured in 6C/Colon 1B media containing advanced DMEM/F-12 (Thermo Fisher Scientific, cat. 12634028), 10 mM HEPES (Thermo Fisher Scientific, cat. 15630080), 1X GlutaMAX supplement (Thermo Fisher Scientific, cat. 35050061), 0.1 mg/mL primocin (InvivoGen, San Diego, CA, cat. ant-pm-2), 10% defined fetal bovine serum, heat inactivated (HyClone Laboratories Inc., Logan, UT, cat. SH30070.03HI), 50% L-WRN conditioned media (ATCC, cat. CRL-3276), 1.25 mM N-Acetyl-L-cysteine (Sigma-Aldrich, cat. A9165), 10 mM nicotinamide (Sigma-Aldrich, cat. N0636), 1X B-27 supplement (Thermo Fisher Scientific, cat. 17504044), 1X N-2 supplement (Thermo Fisher Scientific, cat. […]
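Further: spheroids exposed to compounds for one week.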
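Wherever viability, T/C is given: 100% = vehicle DMSO treated spheroids.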

CNCc1ccc(-c2[nH]c3cc(F)cc4c3c2CCNC4=O)cc1 + COC1C(OC(N)=O)C(O)C(Oc2ccc3c(O)c(NC(=O)c4ccc(O)c(CC=C(C)C)c4)c(=O)oc3c2C)OC1(C)C
IC50 (curve of first compound, second compound 0.0316 µM): > 10 µM
IC50 (curve of first compound, second compound 0.1 µM): > 10 µM
IC50 (curve of first compound, second compound 0.316 µM): > 10 µM
IC50 (curve of first compound, second compound 1 µM): > 10 µM
IC50 (curve of first compound, second compound 3.16 µM): > 10 µM
IC50 (curve of first compound, second compound 10 µM): > 10 µM
viability, T/C (second compound 0.0316 µM, first compound 0.0316 µM): 101%
viability, T/C (second compound 0.0316 µM, first compound 0.1 µM): 103%
viability, T/C (second compound 0.0316 µM, first compound 0.316 µM): 96.6%
viability, T/C (second compound 0.0316 µM, first compound 1 µM): 107%
viability, T/C (second compound 0.0316 µM, first compound 3.16 µM): 111%
viability, T/C (second compound 0.0316 µM, first compound 10 µM): 103%
viability, T/C (second compound 0.1 µM, first compound 0.0316 µM): 103%
viability, T/C (second compound 0.1 µM, first compound 0.1 µM): 101%
viability, T/C (second compound 0.1 µM, first compound 0.316 µM): 101%
viability, T/C (second compound 0.1 µM, first compound 1 µM): 109%
viability, T/C (second compound 0.1 µM, first compound 3.16 µM): 104%
viability, T/C (second compound 0.1 µM, first compound 10 µM): 96.5%
viability, T/C (second compound 0.316 µM, first compound 0.0316 µM): 107%
viability, T/C (second compound 0.316 µM, first compound 0.1 µM): 102%
viability, T/C (second compound 0.316 µM, first compound 0.316 µM): 106%
viability, T/C (second compound 0.316 µM, first compound 1 µM): 106%
viability, T/C (second compound 0.316 µM, first compound 3.16 µM): 104%
viability, T/C (second compound 0.316 µM, first compound 10 µM): 103%
viability, T/C (second compound 1 µM, first compound 0.0316 µM): 114%
viability, T/C (second compound 1 µM, first compound 0.1 µM): 99.8%
viability, T/C (second compound 1 µM, first compound 0.316 µM): 101%
viability, T/C (second compound 1 µM, first compound 1 µM): 107%
viability, T/C (second compound 1 µM, first compound 3.16 µM): 106%
viability, T/C (second compound 1 µM, first compound 10 µM): 104%
viability, T/C (second compound 3.16 µM, first compound 0.0316 µM): 102%
viability, T/C (second compound 3.16 µM, first compound 0.1 µM): 106%
viability, T/C (second compound 3.16 µM, first compound 0.316 µM): 100%
viability, T/C (second compound 3.16 µM, first compound 1 µM): 110%
viability, T/C (second compound 3.16 µM, first compound 3.16 µM): 108%
viability, T/C (second compound 3.16 µM, first compound 10 µM): 101%
viability, T/C (second compound 10 µM, first compound 0.0316 µM): 106%
viability, T/C (second compound 10 µM, first compound 0.1 µM): 102%
viability, T/C (second compound 10 µM, first compound 0.316 µM): 106%
viability, T/C (second compound 10 µM, first compound 1 µM): 108%
viability, T/C (second compound 10 µM, first compound 3.16 µM): 105%
viability, T/C (second compound 10 µM, first compound 10 µM): 101%

CC1COCCN1c1cc(C2(O)CC3CCC(C2)O3)c2cnn(-c3ccn[nH]3)c2n1 (stereo not given)
viability, T/C (compound 0.0316 µM): 81.7% and 83.6% and 51%
viability, T/C (compound 0.1 µM): 51.1% and 44.5% and 17.5%
viability, T/C (compound 0.316 µM): 25.6% and 22.2% and 9.65%
viability, T/C (compound 1 µM): 20.1% and 15.7% and 9.53%
viability, T/C (compound 3.16 µM): 17.1% and 14.3% and 7.61%
viability, T/C (compound 10 µM): 17.9% and 14.2% and 4.79%
IC50 (curve of compound): 0.105 µM and 0.0851 µM and 0.0324 µM

COc1ccc([C@@H](O)c2cc(-c3ncnc4cc(N5CCOCC5)ccc34)c(F)cc2Cl)nn1
viability, T/C (compound 0.0316 µM): 107% and 98.4% and 105%
viability, T/C (compound 0.1 µM): 105% and 99.2% and 102%
viability, T/C (compound 0.316 µM): 100% and 104% (2×)
viability, T/C (compound 1 µM): 96.4% and 81.6% and 94.7%
viability, T/C (compound 3.16 µM): 73.8% and 64.6% and 87.4%
viability, T/C (compound 10 µM): 49.8% and 45.3% and 51%
IC50 (curve of compound): 9.83 µM and 7.58 µM and > 10 µM

CCc1c2c(nc3ccc(O)cc13)-c1cc3c(c(=O)n1C2)COC(=O)[C@]3(O)CC
viability, T/C (compound 0.00316 µM): 29.6% and 21.7% and 23.7%
viability, T/C (compound 0.01 µM): 13.3% and 10.5% and 14.2%
viability, T/C (compound 0.0316 µM): 5.51% and 5.68% and 5.45%
viability, T/C (compound 0.1 µM): 3.41% and 4.83% and 3.66%
viability, T/C (compound 0.316 µM): 1.89% and 3.99%
viability, T/C (compound 1 µM): 1.68% and 1.7% and 1.87%
IC50 (curve of compound): < 0.00316 µM

C=CC(=O)N1CCN(c2nc(=O)n(-c3c(C)ccnc3C(C)C)c3nc(-c4c(O)cccc4F)c(F)cc23)C(C)C1 (stereo not given)
viability, T/C (compound 0.0316 µM): 100% and 109% and 106%
viability, T/C (compound 0.1 µM): 95.8% and 94.2% and 95.4%
viability, T/C (compound 0.316 µM): 117% and 96.4% and 105%
viability, T/C (compound 1 µM): 101% and 104% and 95.6%
viability, T/C (compound 3.16 µM): 96.5% and 93.2% and 101%
viability, T/C (compound 10 µM): 89% and 64% and 94.1%
IC50 (curve of compound): > 10 µM
